ChEMBL document CHEMBL1126501, “Differences in antiviral activities for isomers of a fluorinated cyclobutane nucleoside analog” (Bioorg Med Chem Lett, 1993)
pIC50: −log10 of the molar value.

How the values were obtained:
Assay type in all cases: functional, organism-based
Human alphaherpesvirus 3 [1] = experiment: In vitro antiviral activity was evaluated against VZV using viral plaque reduction assay
Human alphaherpesvirus 1 [2] = experiment: In vitro antiviral activity was evaluated against HSV-1 using viral plaque reduction assay
Human betaherpesvirus 5 [3] = experiment: In vitro antiviral activity was evaluated against HCMV using viral plaque reduction assay
Human alphaherpesvirus 2 = experiment: In vitro antiviral activity was evaluated against HSV-2 using viral plaque reduction assay
Human betaherpesvirus 5 [4] = experiment: In vitro antiviral activity was evaluated against HCMV using viral plaque reduction assay; Value ranges from 20-40
Human betaherpesvirus 5 [5] = experiment: In vitro antiviral activity was evaluated against HCMV using viral plaque reduction assay; Value ranges from 4-40
Human alphaherpesvirus 3 [6] = experiment: In vitro antiviral activity was evaluated against VZV using viral plaque reduction assay; Value ranges from 2-4
Human alphaherpesvirus 1 [7] = experiment: In vitro antiviral activity was evaluated against HSV-1 using viral plaque reduction assay; Value ranges from 0.7-2
Human alphaherpesvirus 3 [8] = experiment: In vitro antiviral activity was evaluated against VZV using viral plaque reduction assay; Value ranges from 0.02-0.08
Human alphaherpesvirus 1 [9] = experiment: In vitro antiviral activity was evaluated against HSV-1 using viral plaque reduction assay; Value ranges from […]

Compound | pIC50 (Human alphaherpesvirus 1 [2]) | pIC50 (Human betaherpesvirus 5 [3]) | pIC50 (Human alphaherpesvirus 2) | pIC50 (Human alphaherpesvirus 2; Human alphaherpesvirus 2) | further results
Nc1nc(O)c2ncn([C@@H]3C(F)[C@H](CO)C3CO)c2n1 (mixture of isomers; form 2) | < 3.60 | < 3.60 | < 3.60 |  | pIC50 (Human alphaherpesvirus 3 [1]): < 3.60
Nc1nc2c(ncn2COCCO)c(=O)[nH]1 [ACYCLOVIR] | 6.40 |  |  | 6.40 | pIC50 (Human betaherpesvirus 5 [4]): 4.70
Nc1nc(O)c2ncn([C@@H]3C(F)[C@H](CO)C3CO)c2n1 (mixture of isomers; form 1) |  |  | 6.15 |  | pIC50 (Human betaherpesvirus 5 [5]): 5.40; pIC50 (Human alphaherpesvirus 3 [6]): 5.70; pIC50 (Human alphaherpesvirus 1 [7]): 6.15
Nc1nc(O)c2ncn([C@@H]3C[C@H](CO)C3CO)c2n1 (mixture of isomers) |  | 5.70 |  | 7.40 | pIC50 (Human alphaherpesvirus 3 [8]): 7.70; pIC50 (Human alphaherpesvirus 1 [9]): 7.40
